pIC50: −log10 of the molar value. Where two headings read alike, the source gives them in different places.
Tests used:
[1] = system: normal human umbilical vein endothelial cells (HUVEC); assay: MTT cell viability assay, HUVEC; type: cell-based; details: 48 h
Protocol: Tumour cells were seeded in quadruplicate into wells of a flat-bottomed 96-well microtitre plate (50 μL) at various densities starting at 2×10^6 cells/mL. Four wells containing complete culture medium alone were included in each assay as a background control. The microtitre plate was incubated overnight at 37° C. under a humidified atmosphere containing 5% CO2/95% air, prior to the addition of complete culture medium (100 μL) to each well and further incubated at 37° C. for 48 h. Optimum cell densities (30-50% confluency) for cell viability assays were determined for each cell line by light microscopy.
Tumour cells were seeded in a 96-well microtitre plate (50 μL/well) at an optimum density determined in the cell optimisation assay as above. Background control wells (n=8) containing the same volume of complete culture medium were included in the assay. The microtitre plate was incubated overnight at 37° C., prior to the addition of proteins at various concentrations and the plate was incubated for a further 48 h. […]
The effect of NoD173 on the viability of a tumour cell line and a normal human cell isolate was determined using a 3-(4,5-dimethyl-2-thiazolyl)-2,5-diphenyl-2H-tetrazolium bromide (MTT) in vitro cell culture viability assay. […]

[2] = system: Fusarium oxysporum f. sp. vasinfectum (Fov); details: cited from earlier work
Leptosphaeria maculans = details: cited from earlier work
Verticillium dahliae = details: cited from earlier work
Thielaviopsis basicola = details: cited from earlier work
Aspergillus nidulans = details: cited from earlier work
[3] = subcutaneous, intraperitoneal or intratumoural routes; previous studies; cited from earlier work
Phoma betae = details: cited from earlier work

In the case of “NaD1: plant defensin isolated from floral tissue of Nicotiana alata; model class II defensin (RECKTESNTFPGICITKPPCRKACISEKFTDGHCSKILRRCLCTKPC; UniProt Q8GTM0 26-72, looked up)”, the pIC50 [1] is given as 4.82, the “Growth inhibition of Fov” value ([2]; 1 μM) is given as 50% and the “Growth inhibition of Fov” value ([2]; 5 μM) is given as “more than 80%”. The “Growth inhibition of L. maculans” value (Leptosphaeria maculans; 1 μM) was 50%, the “Growth inhibition of L. maculans” value (Leptosphaeria maculans; 5 μM) was “more than 80%” and the “Growth inhibition of V. dahliae” value (Verticillium dahliae; 1 μM) was “approximately 65%”. For the same substance, the “Growth inhibition of V. dahliae” value (Verticillium dahliae; 5 μM) was “more than 80%”, the “Growth inhibition of T. basicola” value (Thielaviopsis basicola; 1 μM) was “approximately 65%” and the “Growth inhibition of T. basicola” value (Thielaviopsis basicola; 5 μM) was “more than 80%”. For the same substance, the “Growth inhibition of A. nidulans” value (Aspergillus nidulans; 1 μM) was “approximately 65%”, the “Growth inhibition of A. nidulans” value (Aspergillus nidulans; 5 μM) was “more than 80%” and the “Dose at which toxicity was shown” value [3] was “above 1 mg/kg body weight”.
For “Rs-AFP2: antifungal protein (plant defensin) isolated from radish seeds, 51 amino acids (QKLCQRPSGTWSGVCGNNNACKNQCIRLEKARHGSCNYVFPAHKCICYFPC; UniProt P30230 30-80, looked up)”, the “Concentration inhibiting growth of Phoma betae” value (Phoma betae) is given as 1 µg/mL.
